Measured values from US12227520B2 (priority 2019, dated 2025).
Like-named read-outs stand apart in the source and are kept apart here.

Assays:
[1] = tested on: HIV-1 (IIIB); assay: Antiviral assay in MT-4 cells (HIV MT-4 antiviral assay); assay type: cell-based; conditions: Human immunodeficiency virus 1, IIIB, MT4, 120 h, HIV-1 (IIIB) in MT-4 cells, 5 days incubation; read-out: EC50
Outline: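 Read-out is CellTiter-Glo chemiluminescence after 5-day culture at 37° C, giving protection of MT-4 cells from HIV-1 IIIB cytopathicity. Compounds tested in 1:3 dilution series in complete RPMI; controls were no drug, mock infection and 5 μM AZT.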

[2] = Cytotoxicity assay in MT-4 cells; assay type: cell-based, human; conditions: human, uninfected MT-4 cells, 5 days incubation; read-out: CC50
Outline: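 For cytotoxicity, uninfected MT-4 cells were incubated with compounds 5 days at 37 °C, with 10 μM puromycin marking base cytotoxicity. Parallel plates used HIV-1 IIIB-infected (1:250 stock dilution) or mock cells with 5 μM AZT and no-drug controls. Read-out: CellTiter-Glo chemiluminescence.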

[3] = tested on: pLai RLuc reporter virus; assay: microbe, parasite or virus in culture; assay type: cell-based, HIV
Outline: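 Read-out is Renilla luciferase after 72 h at 37 °C in MT-4 cells infected 2 h beforehand with pLai RLuc reporter virus; compounds diluted 1:3.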

[4] = Human immunodeficiency virus 1, 72 h, read-out: Antiviral Serum Shift RLuc 50% HS, HS/CCM (RPMI media, 10% FBS, 50% HS, 1% P/S), 72-h incubation
[5] = Human immunodeficiency virus 1, 72 h, read-out: Antiviral Serum Shift RLuc CCM, CCM (RPMI media, 10% FBS, 1% P/S), 72-h incubation

SMILES	EC50 [1] [nM]	CC50 at 5 days [2] [nM]	EC50 [3, 4] [nM]	EC50 [3, 5] [nM]	EC50 ([3]; read-out: Antiviral Serum Shift RLuc 50% HS, HS/CCM (RPMI media, 10% FBS, 50% HS, 1% P/S), 72-h incubation) [nM]
C[C@H]1[C@H](F)CC[C@H]2CN1C(=O)c1c(O)c(=O)c(C(=O)NCc3c(F)cc(F)cc3F)cn12 [Example 158, (3S,4R,7S)-4-fluoro-12-hydroxy-3-methyl-1,11-dioxo-N-(2,4,6-trifluorobenzyl)-1,4,5,6,7,11-hexahydro-3H-2,7-methanopyrido[1,2-a][1,4]diazonine-10-carboxamide]	1.67	8830	49.7	0.306	–
O=C(NCc1ccc(F)c(Cl)c1F)c1cn2c(c(O)c1=O)C(=O)N1CC2CCc2cccc(F)c21 (stereo not shown) [Example 67, N-(3-chloro-2,4-difluorobenzyl)-4-fluoro-7-hydroxy-6,8-dioxo-6,8,13,14-tetrahydro-12H-5,12-methanobenzo[e]pyrido[1,2-a][1,4]diazonine-9-carboxamide]	2.44	23900	1.49	0.437	–
C[C@]1(F)CCCN2C[C@@H]1n1cc(C(=O)NCc3c(F)cc(F)cc3F)c(=O)c(O)c1C2=O [Example 61-1, (6S, 7S)-6-fluoro-12-hydroxy-6-methyl-1,11-dioxo-N-(2,4,6-trifluorobenzyl)-1,4,5,6,7,11-hexahydro-3H-2,7-methanopyrido[1,2-a][1,4]diazonine-10-carboxamide]	1.85	10300	72	0.206	–
O=C(NCc1ccc(F)c(Cl)c1F)c1cn2c(c(O)c1=O)C(=O)N1CCC=C[C@H]2C1 [Example 171, (7S)—N-(3-chloro-2,4-difluorobenzyl)-12-hydroxy-1,11-dioxo-1,4,7,11-tetrahydro-3H-2,7-methanopyrido[1,2-a][1,4]diazonine-10-carboxamide]	0.962	4190	8.5	0.387	–
C[C@]12CC=CCN(C1)C(=O)c1c(O)c(=O)c(C(=O)NCc3ccc(F)cc3F)cn12 [Example 168, (7S)—N-(2,4-difluorobenzyl)-12-hydroxy-7-methyl-1,11-dioxo-1,6,7,11-tetrahydro-3H-2,7-methanopyrido[1,2-a][1,4]diazonine-10-carboxamide]	1.75	13700	41.3	0.187	–
O=C(NCc1c(F)cc(F)cc1F)c1cn2c(c(O)c1=O)C(=O)N1C[C@@H]2CCC[C@@H]1CF [Example 164, (3R,7S)-3-(fluoromethyl)-12-hydroxy-1,11-dioxo-N-(2,4,6-trifluorobenzyl)-1,4,5,6,7,11-hexahydro-3H-2,7-methanopyrido[1,2-a][1,4]diazonine-10-carboxamide]	1.21	10400	13.3	0.333	–
O=C(NCc1ccc(F)cc1F)c1cn2c(c(O)c1=O)C(=O)N1CCCCC2C1 (racemic) [Example 25, N-(2,4-difluorobenzyl)-12-hydroxy-1,11-dioxo-1,4,5,6,7,11-hexahydro-3H-2,7-methanopyrido[1,2-a][1,4]diazonine-10-carboxamide]	1.7	12600	1.92	0.191	–
O=C(NCc1c(F)cc(F)cc1F)c1cn2c(c(O)c1=O)C(=O)N1CCC=C(F)[C@H]2C1 (single isomer, unassigned) [Example 75-2]	2.09	26000	2.19	0.473	–
O=C(NCc1ccc(F)cc1F)c1cn2c(c(O)c1=O)C(=O)N1CCCC3(CC3)[C@H]2C1 [Example 57-1, (7'S)—N-(2,4-difluorobenzyl)-12′-hydroxy-1′,11′-dioxo-1′,4′,5′,11′-tetrahydro-3′H,7′H-spiro[cyclopropane-1,6′-[2,7]methanopyrido[1,2-a][1,4]diazonine]-10′-carboxamide]	1.22	6900	2.36	0.228	–
CC[C@]1(O)CCCN2C[C@H]1n1cc(C(=O)NCc3c(F)cc(F)cc3F)c(=O)c(O)c1C2=O [Example 93]	2.24	> 40400	1.55	0.462	–
C[C@H]1CCC[C@H]2CN1C(=O)c1c(O)c(=O)c(C(=O)NCc3c(F)cc(F)cc3F)cn12 [Example 98, (3S, 7S)-12-hydroxy-3-methyl-1,11-dioxo-N-(2,4,6-trifluorobenzyl)-1,4,5,6,7,11-hexahydro-3H-2,7-methanopyrido[1,2-a][1,4]diazonine-10-carboxamide]	1.27	14300	19.2	0.284	–
O=C(NCc1ccc(F)cc1F)c1cn2c(c(O)c1=O)C(=O)N1Cc3cc(F)ccc3C[C@H]2C1 [Example 146, (6S)—N-(2,4-difluorobenzyl)-10-fluoro-1-hydroxy-2,14-dioxo-2,7,12,14-tetrahydro-6H-6,13-methanobenzo[f]pyrido[1,2-a][1,4]diazonine-3-carboxamide]	1.76	> 50000	1.12	0.227	–
C[C@]1(O)CCCN2C[C@H]1n1cc(C(=O)NCc3ccc(F)cc3F)c(=O)c(O)c1C2=O [Example 14-1, (6S,7R)—N-(2,4-difluorobenzyl)-6,12-dihydroxy-6-methyl-1,11-dioxo-1,4,5,6,7,11-hexahydro-3H-2,7-methanopyrido[1,2-a][1,4]diazonine-10-carboxamide]	3	22200	1.88	0.79	–
O=C(NCc1c(F)cc(F)cc1F)c1cn2c(c(O)c1=O)C(=O)N1CC[C@H](F)CC[C@H]2C1 [Example 81-1, (5R,8S)-5-fluoro-13-hydroxy-1,12-dioxo-N-(2,4,6-trifluorobenzyl)-1,3,4,5,6,7,8,12-octahydro-2,8-methanopyrido[1,2-a][1,4]diazecine-11-carboxamide]	1.96	23900	0.649	0.466	–
C[C@]12CC(F)CCN(C1)C(=O)c1c(O)c(=O)c(C(=O)NCc3c(F)cc(F)cc3F)cn12 (single isomer, unassigned) [Example 112]	0.712	8030	27.8	0.182	–
C[C@@H]1C[C@H]2CN(C(=O)c3c(O)c(=O)c(C(=O)NCc4c(F)cc(F)cc4F)cn32)[C@@H](C)C1 [Example 142-1, (3S,5S,7S)-12-hydroxy-3,5-dimethyl-1,11-dioxo-N-(2,4,6-trifluorobenzyl)-1,4,5,6,7,11-hexahydro-3H-2,7-methanopyrido[1,2-a][1,4]diazonine-10-carboxamide]	1.97	8420	1.18	0.354	–
O=C(NCc1c(F)cc(F)cc1F)c1cn2c(c(O)c1=O)C(=O)N1CCCC(CF)C2C1 (single isomer, unassigned) [Example 194-1, 6-(fluoromethyl)-12-hydroxy-1,11-dioxo-N-(2,4,6-trifluorobenzyl)-1,4,5,6,7,11-hexahydro-3H-2,7-methanopyrido[1,2-a][1,4]diazonine-10-carboxamide]	1.39	10800	–	0.683	222
CC[C@@H]1CCC[C@H]2CN1C(=O)c1c(O)c(=O)c(C(=O)NCc3c(F)cc(F)cc3F)cn12 [Example 130-1, (3R,7S)-3-ethyl-12-hydroxy-1,11-dioxo-N-(2,4,6-trifluorobenzyl)-1,4,5,6,7,11-hexahydro-3H-2,7-methanopyrido[1,2-a][1,4]diazonine-10-carboxamide]	1.53	12200	4.17	0.213	–
O=C(NCc1c(F)cc(F)cc1F)c1cn2c(c(O)c1=O)C(=O)N1CCc3cc(F)c(F)cc3[C@H]2C1 (single isomer, unassigned) [Example 110-1]	2	9870	2.75	0.323	–
C[C@]12CCCCN(C1)C(=O)c1c(O)c(=O)c(C(=O)NCc3c(F)cc(F)cc3F)cn12 [Example 59-1, (7S)-12-hydroxy-7-methyl-1,11-dioxo-N-(2,4,6-trifluorobenzyl)-1,4,5,6,7,11-hexahydro-3H-2,7-methanopyrido[1,2-a][1,4]diazonine-10-carboxamide]	1.53	15000	26.4	0.361	–
C[C@]12CCCCN(C1)C(=O)c1c(O)c(=O)c(C(=O)NCc3ccc(F)cc3F)cn12 [Example 173, (7S)—N-(2,4-difluorobenzyl)-12-hydroxy-7-methyl-1,11-dioxo-1,4,5,6,7,11-hexahydro-3H-2,7-methanopyrido[1,2-a][1,4]diazonine-10-carboxamide]	1.24	12500	13.9	0.363	–
C[C@]12Cc3cc(F)c(F)cc3CN(C1)C(=O)c1c(O)c(=O)c(C(=O)NCc3c(F)cc(F)cc3F)cn12 (single isomer, unassigned) [Example 191-2]	1.44	11800	1.93	0.361	–
